Results as given in US10392422B2, “Macrocyclic broad spectrum antibiotics” (priority 2014, dated 2019).
≈ marks a conversion by molar mass, not a printed value. Like-named read-outs stand apart in the source and are kept apart here.

What was measured:
Experiment in all cases: MIC, broth micro-dilution technique (CLSI)
[1] = tested on: Methicillin Resistant Staphylococcus aureus strain USA 300 (NRS384); format: cell-based; conditions: for MIC: Staphylococcus aureus, 22 h, read-out: MIC (μg/mL) S. aureus
Method in brief: (§1)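 Cation-adjusted MHB + 0.002% Tween-80; 10-point 2-fold series starting 64 μg/ml (modified protocol: 4 μg/mL). Final inoculum OD600 0.0005; 35° C, 22 h. MIC per CLSI M07-A8 broth microdilution.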

[2] = tested on: Escherichia coli MC4100 harboring the IMP4213; format: cell-based; conditions: 35° C., 22 hours; for MIC: Escherichia coli, 22 h
Method in brief: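 CLSI broth microdilution in cation-adjusted Mueller Hinton broth with 0.002% v/v Tween-80. Compounds were serially 2-fold diluted over 10 concentrations from 64 μg/ml, or from 4 μg/mL in a modified protocol; inoculum at final OD600 0.0005, incubated 35° C for 22 hours.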

[3] = tested on: MRSA COL (NRS100); format: cell-based, Staphylococcus aureus; conditions: for MIC: Staphylococcus aureus, 22 h, read-out: MIC (μg/mL) (COL)
Method in brief: as §1

[4] = read-out: MIC (μg/mL) E. coli, Table 2 modified protocol: serial 2-fold dilutions starting from 4 μg/mL
[5] = read-out: MIC (μg/mL) E. coli, Table 1 protocol: serial 2-fold dilutions starting from 64 μg/ml
[6] = Table 1 protocol: serial 2-fold dilutions starting from 64 μg/ml, 35° C., 22 hours

## CCCCCCCCCCCC(=O)N[C@@H](CCN)C(=O)N(C)[C@@H]1C(=O)N[C@@H](C)C(=O)N[C@H](C(=O)O)Cc2ccc(OCCN)c(c2)-c2cc1ccc2OCCN [Compound 304]
[1]
  MIC: 0.5 µg/mL (≈ 0.639 µM)
[2]; [4]
  MIC: 0.047 µg/mL (≈ 0.0601 µM)
[3]
  MIC: 0.13 µg/mL (≈ 0.166 µM)

## CCCCCCCCCCC(=O)N[C@@H](CCN)C(=O)N(C)[C@@H]1C(=O)N[C@@H](C)C(=O)N[C@H](C(=O)O)Cc2ccc(OCCN)c(c2)-c2cc1ccc2OCCN [Compound 305]
[1]
  MIC: 1 µg/mL (≈ 1.3 µM)
[2]; [4]
  MIC: 0.13 µg/mL (≈ 0.169 µM)
[3]
  MIC: 0.38 µg/mL (≈ 0.495 µM)

## CCCCCCCCCC(=O)N[C@@H](CCN)C(=O)N(C)[C@@H]1C(=O)N[C@@H](C)C(=O)N[C@H](C(=O)O)Cc2ccc(OCCN)c(c2)-c2cc1ccc2OCCN [Compound 306]
[1]
  MIC: 3 µg/mL (≈ 3.98 µM)
[2]; [4]
  MIC: 0.25 µg/mL (≈ 0.332 µM)
[3]
  MIC: 1 µg/mL (≈ 1.33 µM)

## CCCCCCCCC(=O)N[C@@H](CCN)C(=O)N(C)[C@@H]1C(=O)N[C@@H](C)C(=O)N[C@H](C(=O)O)Cc2ccc(OCCN)c(c2)-c2cc1ccc2OCCN [Compound 307]
[1]
  MIC: 4 µg/mL (≈ 5.41 µM)
[2]; [4]
  MIC: 1 µg/mL (≈ 1.35 µM)
[3]
  MIC: 3 µg/mL (≈ 4.05 µM)

## CCCCCCCCCCCCCC(=O)N[C@@H](CC)C(=O)N(C)[C@@H]1C(=O)N[C@@H](C)C(=O)N[C@H](C(=O)O)Cc2ccc(OCCN)c(c2)-c2cc1ccc2OCCN [Compound 308]
[1]
  MIC: 1 µg/mL (≈ 1.26 µM)
[2]; [4]
  MIC: 0.094 µg/mL (≈ 0.118 µM)
[3]
  MIC: 0.38 µg/mL (≈ 0.478 µM)

## CCCCCCCCc1ccc(C(=O)N[C@@H](CO)C(=O)N(C)[C@@H]2C(=O)N[C@@H](C)C(=O)N[C@H](C(=O)O)Cc3ccc(OCCN)c(c3)-c3cc2ccc3OCCN)c(C)c1 [Compound 309]
[1]
  MIC: 0.5 µg/mL (≈ 0.612 µM)
[2]; [4]
  MIC: 0.031 µg/mL (≈ 0.0379 µM)
[3]
  MIC: 0.25 µg/mL (≈ 0.306 µM)

## C[C@H](NC(=O)[C@@H]1Cc2ccc(OCCN)c(c2)-c2cc(ccc2OCCN)[C@H](N(C)C(=O)[C@H](CCCCN)NC(=O)c2ccc(-c3ccc(Cl)cc3)cc2)C(=O)N[C@@H](C)C(=O)N1)B1O[C@@H]2C[C@@H]3C[C@@H](C3(C)C)[C@]2(C)O1 [Compound 310]
[1]
  MIC: 0.5 µg/mL (≈ 0.477 µM)
[2]; [5]
  MIC: 0.19 µg/mL (≈ 0.181 µM)
[3]
  MIC: 0.094 µg/mL (≈ 0.0897 µM)

## C[C@@H]1NC(=O)[C@@H](N(C)C(=O)[C@H](CCCCN)NC(=O)c2ccc(-c3ccc(Cl)cc3)cc2)c2ccc(OCCN)c(c2)-c2cc(ccc2OCCN)C[C@@H](C(=O)NCB(O)O)NC1=O [Compound 311]
[1]
  MIC: 1.5 µg/mL (≈ 1.67 µM)
[2]; [5]
  MIC: 0.19 µg/mL (≈ 0.211 µM)
[3]
  MIC: 0.13 µg/mL (≈ 0.145 µM)

## C[C@@H]1NC(=O)[C@@H](N(C)C(=O)[C@H](CCCCN)NC(=O)c2ccc(-c3ccc(Cl)cc3)cc2)c2ccc(OCCN)c(c2)-c2cc(ccc2O)C[C@@H](C(=O)O)NC1=O [Compound 312]
[1]
  MIC: 24 µg/mL (≈ 30 µM)
[2]; [5]
  MIC: 3 µg/mL (≈ 3.75 µM)
[3]
  MIC: 3 µg/mL (≈ 3.75 µM)

## C[C@H](NC(=O)[C@@H]1Cc2ccc(O)c(c2)-c2cc(ccc2OCCN)[C@H](N(C)C(=O)[C@H](CCCCN)NC(=O)c2ccc(-c3ccc(Cl)cc3)cc2)C(=O)N[C@@H](C)C(=O)N1)B1O[C@@H]2C[C@@H]3C[C@@H](C3(C)C)[C@]2(C)O1 [Compound 313]
[1]
  MIC: 2 µg/mL (≈ 1.99 µM)
[2]; [5]
  MIC: 1 µg/mL (≈ 0.996 µM)
[3]
  MIC: 0.38 µg/mL (≈ 0.378 µM)

## CCCCCCCCCCCCCC(=O)NC(CCCCN)C(=O)N(C)C1C(=O)NC(C)C(=O)NC(C(=O)NC(C)B2OC3CC4CC(C4(C)C)C3(C)O2)Cc2ccc(OCCN)c(c2)-c2cc1ccc2OCCN (stereo not drawn) [Compound 314]
[1]; [6]
  MIC (μg/mL) S. aureus: 0.063 µg/mL (≈ 0.0604 µM)
[2]; Table 1 protocol: serial 2-fold dilutions starting from 64 μg/ml
  MIC (μg/mL) E. coli: 0.094 µg/mL (≈ 0.0901 µM)
[3]; [6]
  MIC (μg/mL) (COL): 0.012 µg/mL (≈ 0.0115 µM)

## CCCCCCCCCCCCCC(=O)N(C)[C@@H]1C(=O)N[C@@H](C)C(=O)N[C@H](C(=O)N[C@@H](C)B2O[C@@H]3C[C@@H]4C[C@@H](C4(C)C)[C@]3(C)O2)Cc2ccc(OCCN)c(c2)-c2cc1ccc2OCCN [Compound 315]
[1]
  MIC: 1 µg/mL (≈ 1.09 µM)
[2]; [5]
  MIC: 1 µg/mL (≈ 1.09 µM)
[3]
  MIC: 0.5 µg/mL (≈ 0.546 µM)

## CCCCc1ccc(-c2ccc(C(=O)N[C@@H](CCCCN)C(=O)N(C)[C@@H]3C(=O)N[C@@H](C)C(=O)N[C@H](C(=O)N[C@@H](C)B4O[C@@H]5C[C@@H]6C[C@@H](C6(C)C)[C@]5(C)O4)Cc4ccc(OCCN)c(c4)-c4cc3ccc4OCCN)cc2)cc1 [Compound 316]
[1]
  MIC: 0.13 µg/mL (≈ 0.122 µM)
[2]; [5]
  MIC: 0.094 µg/mL (≈ 0.0879 µM)
[3]
  MIC: 0.031 µg/mL (≈ 0.029 µM)

## CCCCc1ccc(-c2ccc(C(=O)N[C@@H](CN)C(=O)N(C)[C@@H]3C(=O)N[C@@H](C)C(=O)N[C@H](C(=O)N[C@@H](C)B4O[C@@H]5C[C@@H]6C[C@@H](C6(C)C)[C@]5(C)O4)Cc4ccc(OCCN)c(c4)-c4cc3ccc4OCCN)cc2)cc1 [Compound 317]
[1]
  MIC: 0.13 µg/mL (≈ 0.127 µM)
[2]; [5]
  MIC: 0.13 µg/mL (≈ 0.127 µM)
[3]
  MIC: 0.063 µg/mL (≈ 0.0613 µM)

## CCCCCCCCc1ccc(C(=O)N[C@@H](CCCN)C(=O)N(C)[C@@H]2C(=O)N[C@@H](C)C(=O)N[C@H](C(=O)N[C@@H](C)B3O[C@@H]4C[C@@H]5C[C@@H](C5(C)C)[C@]4(C)O3)Cc3ccc(OC)c(c3)-c3cc2ccc3OC)cc1 [Compound 319]
[1]
  MIC: 2 µg/mL (≈ 2.05 µM)
[2]; [5]
  MIC: 0.75 µg/mL (≈ 0.768 µM)
[3]
  MIC: 1 µg/mL (≈ 1.02 µM)

## CCCCCCCCc1ccc(C(=O)N(C)[C@@H]2C(=O)N[C@@H](C)C(=O)N[C@H](C(=O)NCB3O[C@@H]4C[C@@H]5C[C@@H](C5(C)C)[C@]4(C)O3)Cc3ccc(OCCN)c(c3)-c3cc2ccc3OCCN)cc1 [Compound 320]
[1]
  MIC: 6 µg/mL (≈ 6.62 µM)
[2]; [5]
  MIC: 4 µg/mL (≈ 4.41 µM)
[3]
  MIC: 2 µg/mL (≈ 2.21 µM)
